# Laboratory results as given in PubChem BioAssay AID2060330 (Molecular Pharmacology Branch, DTP, NCI, 2025).
# System: LG0703-F948-PDC spheroids with HUVEC/MSC, viability
# Assay: Anticancer human tumor LG0703-F948-PDC patient-derived lung adenocarcinoma cell line growth inhibition [IpAb]
# Conditions: for IC50: curve of first compound; for viability, T/C: stronger effect = lower value
# Summary of the method: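 Spheroids of 60% malignant cells, 25% HUVEC and 15% MSC were exposed to targeted agents combined with ipatasertib or abemaciclib. Doses started at or near clinical Cmax (10 microM when unknown) and fell in half-log steps.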
# [1] = second compound 0.01 µM, first compound 0.0316 µM
# [2] = second compound 0.01 µM, first compound 0.1 µM
# [3] = second compound 0.01 µM, first compound 0.316 µM
# [4] = second compound 0.01 µM, first compound 1 µM
# [5] = second compound 0.01 µM, first compound 3.16 µM
# [6] = second compound 0.01 µM, first compound 10 µM
# [7] = second compound 0.0316 µM, first compound 0.0316 µM
# [8] = second compound 0.0316 µM, first compound 0.1 µM
# [9] = second compound 0.0316 µM, first compound 0.316 µM
# [10] = second compound 0.0316 µM, first compound 1 µM
# [11] = second compound 0.0316 µM, first compound 3.16 µM
# [12] = second compound 0.0316 µM, first compound 10 µM
# [13] = second compound 0.1 µM, first compound 0.0316 µM
# [14] = second compound 0.1 µM, first compound 0.1 µM
# [15] = second compound 0.1 µM, first compound 0.316 µM
# [16] = second compound 0.1 µM, first compound 1 µM
# [17] = second compound 0.1 µM, first compound 3.16 µM
# [18] = second compound 0.1 µM, first compound 10 µM
# [19] = second compound 0.316 µM, first compound 0.0316 µM
# [20] = second compound 0.316 µM, first compound 0.1 µM
# [21] = second compound 0.316 µM, first compound 0.316 µM
# [22] = second compound 0.316 µM, first compound 1 µM
# [23] = second compound 0.316 µM, first compound 3.16 µM
# [24] = second compound 0.316 µM, first compound 10 µM
# [25] = second compound 1 µM, first compound 0.0316 µM
# [26] = second compound 1 µM, first compound 0.1 µM
# [27] = second compound 1 µM, first compound 0.316 µM
# [28] = second compound 1 µM, first compound 1 µM
# [29] = second compound 1 µM, first compound 3.16 µM
# [30] = second compound 1 µM, first compound 10 µM
# 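Note: spheroids exposed to compounds for seven days before readout.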
# 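Throughout, for viability, T/C: T/C percent relative to DMSO vehicle wells set as 100% viability.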
SMILES,IC50 (second compound 0.01 µM),IC50 (second compound 0.0316 µM),IC50 (second compound 0.1 µM),IC50 (second compound 0.316 µM),IC50 (second compound 1 µM),"viability, T/C [1]","viability, T/C [2]","viability, T/C [3]","viability, T/C [4]","viability, T/C [5]","viability, T/C [6]","viability, T/C [7]","viability, T/C [8]","viability, T/C [9]","viability, T/C [13]","viability, T/C [14]","viability, T/C [19]","viability, T/C [20]","viability, T/C [25]","viability, T/C [26]",further results
C=CC(=O)N1CCN(c2nc(=O)n(-c3c(C)ccnc3C(C)C)c3nc(-c4c(O)cccc4F)c(F)cc23)C(C)C1 (stereo not given) + CCN1CCN(Cc2ccc(Nc3ncc(F)c(-c4cc(F)c5nc(C)n(C(C)C)c5c4)n3)nc2)CC1,> 10000 nM,> 10000 nM,> 10000 nM,> 10000 nM,> 10000 nM,110%,110%,107%,121%,111%,79.5%,95.5%,92%,94.2%,86.6%,95.5%,88.1%,85.6%,89.8%,82.9%,"viability, T/C [10]: 104%; viability, T/C [11]: 99.2%; viability, T/C [12]: 75.9%; viability, T/C [15]: 91.2%; viability, T/C [16]: 94.5%; viability, T/C [17]: 91.8%; viability, T/C [18]: 73%; viability, T/C [21]: 82.3%; viability, T/C [22]: 97.7%; viability, T/C [23]: 95.6%; viability, T/C [24]: 79.6%; viability, T/C [27]: 46.8%; viability, T/C [28]: 96.6%; viability, T/C [29]: 95.7%; viability, T/C [30]: 73.1%"
Cn1ncc(Cl)c1-c1cc(C(=O)NC(CN)Cc2cccc(F)c2)sc1Cl (stereo not given) + CCN1CCN(Cc2ccc(Nc3ncc(F)c(-c4cc(F)c5nc(C)n(C(C)C)c5c4)n3)nc2)CC1,643 nM,401 nM,372 nM,349 nM,278 nM,88%,67.6%,59.3%,49.3%,21.5%,0.13%,86.1%,63.7%,51.3%,86.3%,68.8%,86.1%,70%,77.9%,71.5%,"viability, T/C [10]: 45.9%; viability, T/C [11]: 13.3%; viability, T/C [12]: 0.13%; viability, T/C [15]: 44.4%; viability, T/C [16]: 46.4%; viability, T/C [17]: 13.5%; viability, T/C [18]: 0.13%; viability, T/C [21]: 41.9%; viability, T/C [22]: 48.7%; viability, T/C [23]: 7.04%; viability, T/C [24]: 0.12%; viability, T/C [27]: 37.4%; viability, T/C [28]: 40.1%; viability, T/C [29]: 1.07%; viability, T/C [30]: 0.17%"
Cn1ncnc1[C@H]1c2n[nH]c(=O)c3cc(F)cc(c23)N[C@@H]1c1ccc(F)cc1 + CCN1CCN(Cc2ccc(Nc3ncc(F)c(-c4cc(F)c5nc(C)n(C(C)C)c5c4)n3)nc2)CC1,> 100 nM,> 100 nM,> 100 nM,> 100 nM,> 100 nM,91.2%,88.8%,,,,,92.6%,83.4%,,74.4%,84.3%,84.1%,76.7%,74.4%,80.2%,"viability, T/C (second compound 0.01 µM, first compound 0.000316 µM): 104%; viability, T/C (second compound 0.01 µM, first compound 0.001 µM): 98%; viability, T/C (second compound 0.01 µM, first compound 0.00316 µM): 99.2%; viability, T/C (second compound 0.01 µM, first compound 0.01 µM): 97.3%; viability, T/C (second compound 0.0316 µM, first compound 0.000316 µM): 94%; viability, T/C (second compound 0.0316 µM, first compound 0.001 µM): 91.4%; viability, T/C (second compound 0.0316 µM, first compound 0.00316 µM): 79.9%; viability, T/C (second compound 0.0316 µM, first compound 0.01 µM): 86.1%; viability, T/C (second compound 0.1 µM, first compound 0.000316 µM): 79.5%; viability, T/C (second compound 0.1 µM, first compound 0.001 µM): 88.8%; viability, T/C (second compound 0.1 µM, first compound 0.00316 µM): 73%; viability, T/C (second compound 0.1 µM, first compound 0.01 µM): 75.2%; viability, T/C (second compound 0.316 µM, first compound 0.000316 µM): 85.6%; viability, T/C (second compound 0.316 µM, first compound 0.001 µM): 80.6%; viability, T/C (second compound 0.316 µM, first compound 0.00316 µM): 67.7%; viability, T/C (second compound 0.316 µM, first compound 0.01 µM): 86.8%; viability, T/C (second compound 1 µM, first compound 0.000316 µM): 82.2%; viability, T/C (second compound 1 µM, first compound 0.001 µM): 72.7%; viability, T/C (second compound 1 µM, first compound 0.00316 µM): 43.4%; viability, T/C (second compound 1 µM, first compound 0.01 µM): 68.9%"
